Results published in BindingDB's records for patent US10087191 (Jiangsu Hengrui Medicine, 2018).

biological target: T1, Estrogen receptor (Homo sapiens, UniProt P03372); test: Biological Assay
T1 sequence (P03372 whole entry): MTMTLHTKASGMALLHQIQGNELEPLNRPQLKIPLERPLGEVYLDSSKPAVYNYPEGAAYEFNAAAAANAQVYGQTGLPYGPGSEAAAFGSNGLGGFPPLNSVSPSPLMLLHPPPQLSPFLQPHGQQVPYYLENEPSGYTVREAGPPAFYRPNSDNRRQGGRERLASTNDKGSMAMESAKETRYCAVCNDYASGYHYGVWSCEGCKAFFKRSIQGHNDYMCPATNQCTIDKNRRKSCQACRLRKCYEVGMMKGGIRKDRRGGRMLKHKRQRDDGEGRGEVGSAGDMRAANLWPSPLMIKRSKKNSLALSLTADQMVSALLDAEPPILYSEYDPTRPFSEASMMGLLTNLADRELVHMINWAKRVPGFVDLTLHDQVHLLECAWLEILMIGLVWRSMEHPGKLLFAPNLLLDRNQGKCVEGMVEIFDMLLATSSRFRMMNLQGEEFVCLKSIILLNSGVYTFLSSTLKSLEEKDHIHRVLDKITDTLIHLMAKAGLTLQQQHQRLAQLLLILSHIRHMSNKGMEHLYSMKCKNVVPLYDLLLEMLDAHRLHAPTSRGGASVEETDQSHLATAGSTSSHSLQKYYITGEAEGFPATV

Row | SMILES | IC50 [nM]
1 | CC(C)CN1C(C)Cc2c(ccc3[nH]ncc23)C1c1c(F)cc(/C=C/C(=O)O)cc1F (stereo not given) [US10087191, Example 92] | 0.43
2 | CC1Cc2cc(-c3ccc(-c4cnn(C)c4)nc3)ccc2C(c2c(F)cc(/C=C/C(=O)O)cc2F)N1CC(C)(C)F (stereo not given) [US10087191, Example 61] | 17.4
3 | CC1Cc2c(oc3c(F)cccc23)C(c2c(F)cc(/C=C/C(=O)O)cc2F)N1CC(C)(C)F (stereo not given) [US10087191, Example 84] | 2.97
4 | CCc1nc(-c2ccc3c(c2)CC(C)N(CC(C)(C)F)C3c2c(F)cc(/C=C/C(=O)O)cc2F)no1 (stereo not given) [US10087191, Example 46] | 11.4
5 | CC1Cc2cc(-c3ccc(N)nc3)ccc2C(c2c(F)cc(/C=C/C(=O)O)cc2F)N1CC(C)(C)F (stereo not given) [US10087191, Example 27] | 19.8
6 | CC1Cc2cc(-c3cnn(C(F)F)c3)ccc2C(c2c(F)cc(/C=C/C(=O)O)cc2F)N1CC(C)(C)F (stereo not given) [US10087191, Example 13] | 2.11
7 | CC1Cc2cc(-c3cnn(C)c3)c(F)cc2C(c2c(F)cc(/C=C/C(=O)O)cc2F)N1CC(C)(C)F (stereo not given) [US10087191, Example 16] | 1.36
8 | CC1Cc2cc(-c3cccnc3)ccc2C(c2c(F)cc(/C=C/C(=O)O)cc2F)N1CC(C)(C)F (stereo not given) [US10087191, Example 28] | 2.28
9 | CC1Cc2c(oc3ccccc23)C(c2c(F)cc(/C=C/C(=O)O)cc2F)N1CC(C)(C)F (stereo not given) [US10087191, Example 4] | 0.73
10 | CC1Cc2c(oc3ccc(Br)cc23)C(c2c(F)cc(/C=C/C(=O)O)cc2F)N1CC(C)(C)F (stereo not given) [US10087191, Example 87] | 15
11 | CCn1cc(-c2cc3c(cc2F)C(c2c(F)cc(/C=C/C(=O)O)cc2F)N(CC(C)(C)F)C(C)C3)cn1 (stereo not given) [US10087191, Example 17] | 1.17
12 | CC1Cc2sc3ccccc3c2C(c2c(F)cc(/C=C/C(=O)O)cc2F)N1CC(C)(C)F (stereo not given) [US10087191, Example 6] | 4.9
13 | CCn1cc(-c2ccc3oc4c(c3c2)CC(C)N(CC(C)(C)F)C4c2c(F)cc(/C=C/C(=O)O)cc2F)cn1 (stereo not given) [US10087191, Example 76] | 1.39
14 | CC1Cc2c(ccc3[nH]ncc23)C(c2c(F)cc(/C=C/C(=O)O)cc2F)N1CC(C)(C)F (stereo not given) [US10087191, Example 70] | 0.77
15 | CC1Cc2cc3c(cc2C(c2c(F)cc(/C=C/C(=O)O)cc2F)N1CC(C)(C)F)OCO3 (stereo not given) [US10087191, Example 1] | 0.77
16 | CC1Cc2cc(-c3cnn(CCO)c3)ccc2C(c2c(F)cc(/C=C/C(=O)O)cc2F)N1CC(C)(C)F (stereo not given) [US10087191, Example 23] | 27.3
17 | Cc1ncc(-c2ccc3c(c2)CC(C)N(CC(C)(C)F)C3c2c(F)cc(/C=C/C(=O)O)cc2F)o1 (stereo not given) [US10087191, Example 49] | 3.4
18 | CCCn1cc(-c2ccc3c(c2)CC(C)N(CC(C)(C)F)C3c2c(F)cc(/C=C/C(=O)O)cc2F)cn1 (stereo not given) [US10087191, Example 18] | 1.52
19 | CC1Cc2c(oc3cccc(F)c23)C(c2c(F)cc(/C=C/C(=O)O)cc2F)N1CC(C)(C)F (stereo not given) [US10087191, Example 73] | 0.45
20 | CC1Cc2cc(-c3nnn(C)n3)ccc2C(c2c(F)cc(/C=C/C(=O)O)cc2F)N1CC(C)(C)F (stereo not given) [US10087191, Example 51] | 7.43
